Our source for the EC50 values is US10941152B2, “Pyrazole compounds as modulators of FSHR and uses thereof” (TOCOPHERX, INC., priority 2014, dated 2021).

The target in one experiment is T1, FSHR (Homo sapiens, UniProt P23945).
T1 construct: expressed in transfected cells; host or cells: CHO (Cho-FSHR-LUC-1-1-43)
T1 sequence (P23945 18-695): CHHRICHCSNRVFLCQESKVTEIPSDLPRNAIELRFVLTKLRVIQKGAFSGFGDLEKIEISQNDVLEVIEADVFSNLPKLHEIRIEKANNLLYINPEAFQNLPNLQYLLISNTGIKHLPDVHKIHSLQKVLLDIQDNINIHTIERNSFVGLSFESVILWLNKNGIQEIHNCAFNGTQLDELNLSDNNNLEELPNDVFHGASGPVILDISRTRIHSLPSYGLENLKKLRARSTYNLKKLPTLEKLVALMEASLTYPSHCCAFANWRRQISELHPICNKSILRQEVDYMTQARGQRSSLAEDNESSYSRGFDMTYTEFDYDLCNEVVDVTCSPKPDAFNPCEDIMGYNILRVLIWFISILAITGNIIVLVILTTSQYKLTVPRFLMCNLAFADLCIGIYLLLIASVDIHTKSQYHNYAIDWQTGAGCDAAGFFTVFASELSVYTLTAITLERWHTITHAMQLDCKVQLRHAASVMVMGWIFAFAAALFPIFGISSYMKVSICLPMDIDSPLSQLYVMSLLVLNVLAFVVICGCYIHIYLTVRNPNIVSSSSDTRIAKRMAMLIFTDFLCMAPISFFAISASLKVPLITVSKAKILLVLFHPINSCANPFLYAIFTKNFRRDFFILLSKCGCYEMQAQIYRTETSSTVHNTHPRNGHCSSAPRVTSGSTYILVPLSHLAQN
The experiment in a line: EC50 of cyclic AMP production in CHO FSHR cells + EC20 FSH (Assay A). To be noted: cyclic AMP production in CHO FSHR cells + EC20 FSH (0.265 pM), HTRF. The experiment is classed as cell-based. In short, it runs like this: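 CHO cells expressing FSHR, stimulated 1 h at 37° C with compound plus EC20 FSH (0.265 pM final) and 200 μM IBMX. cAMP measured by HTRF (665/620 nm ratio) after 1 h at room temperature; effect expressed relative to maximum response of FSH standard.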
For orientation: TR-FRET usually uses a lanthanide donor and a delayed reading to cut background.

For experiment [1], the target named is T2, follicle-stimulating hormone (FSH) receptor (Rattus norvegicus, UniProt P20395).
T2 construct: endogenous in cells; host or cells: rat granulosa cells
T2 sequence (P20395 18-692): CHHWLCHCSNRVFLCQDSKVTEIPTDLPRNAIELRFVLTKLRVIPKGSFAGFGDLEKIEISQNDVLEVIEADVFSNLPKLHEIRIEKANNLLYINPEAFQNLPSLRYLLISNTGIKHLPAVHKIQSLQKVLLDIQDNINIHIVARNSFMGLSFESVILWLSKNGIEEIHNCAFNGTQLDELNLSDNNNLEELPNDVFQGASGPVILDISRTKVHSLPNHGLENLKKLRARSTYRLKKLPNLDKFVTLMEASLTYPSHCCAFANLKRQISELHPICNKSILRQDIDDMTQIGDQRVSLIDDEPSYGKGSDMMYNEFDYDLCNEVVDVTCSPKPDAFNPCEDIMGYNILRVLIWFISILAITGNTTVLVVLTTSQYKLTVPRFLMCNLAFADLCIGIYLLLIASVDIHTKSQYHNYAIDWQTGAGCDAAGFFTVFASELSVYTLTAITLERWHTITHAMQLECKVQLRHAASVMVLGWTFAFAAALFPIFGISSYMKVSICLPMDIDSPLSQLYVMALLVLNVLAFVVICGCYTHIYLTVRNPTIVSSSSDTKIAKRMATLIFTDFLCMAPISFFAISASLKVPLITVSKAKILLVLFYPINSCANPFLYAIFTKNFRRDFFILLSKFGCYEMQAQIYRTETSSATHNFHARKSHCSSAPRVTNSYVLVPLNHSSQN
The experiment in a line: Rat granulosa EC50 FSH (Assay B). It counts as cell-based. On the procedure:
Example 25. Rat granulosa EC50 FSH (Assay B)
The assay was performed pursuant to the teaching of Yanofsky et al. (2006) Allosteric activation of the follicle-stimulating hormone (FSH) receptor by selective, nonpeptide agonists (JBC 281(19): 13226-13233, which is incorporated by reference in the disclosure of the invention).

In the case of `COc1cc2c(cc1-c1cccnc1F)-c1c(c(C(=O)N(C)C(C)(C)C)nn1-c1cc(Cl)cc(Cl)c1)CO2` [Compound 3, N-tert-butyl-1-(3,5-dichlorophenyl)-8-(2-fluoropyridin-3-yl)-7-methoxy-N-methyl-1,4-dihydrochromeno[4,3-c]pyrazole-3-carboxamide], the EC50 (usually the midpoint of the concentration-response curve) at FSHR is less than 10 nM; in experiment [1], 10 to 100 nM.
The corresponding values for `COc1cc2c(cc1-c1cc(Cl)cc(C(N)=O)c1)-c1c(c(C(=O)N(C)C(C)(C)C)nn1-c1cc(F)cc(F)c1)CO2` [Compound 165] are less than 10 nM and 10 to 100 nM.
On to `COc1cc2c(cc1-c1cccc(C(N)=O)c1)-c1c(c(C(=O)N(C)C(C)(C)C)nn1-c1cc(Cl)cc(Cl)c1)CO2` [Compound 172], for which the values for the concentration for a half-maximal effect (EC50) (at FSHR; in experiment [1]) were less than 10 nM and 10 to 100 nM, respectively.
In the same order, the values of `COc1cc(OC)cc(-n2nc(C(=O)N3CC[S+]([O-])CC3(C)C)c3c2-c2cc(-c4ccn(C)n4)c(OC)cc2OC3)c1` (centres unmarked) [Compound 39, (1-(3,5-dimethoxyphenyl)-7-methoxy-8-(1-methyl-1H-pyrazol-3-yl)-1,4-dihydrochromeno[4,3-c]pyrazol-3-yl)-(S-oxo-3,3-dimethylthiomorpholino)methanone] are 10 to 100 nM and 101 to 500 nM.
In the same order, the values of `COc1cc2c(cc1-c1cnn(CC(N)=O)c1)-c1c(c(C(=O)N(C)C(C)(C)C)nn1-c1cc(Cl)cc(Cl)c1)CO2` [Compound 67, 8-(1-(2-amino-2-oxoethyl)-1H-pyrazol-4-yl)-N-tert-butyl-1-(3,5-dichlorophenyl)-7-methoxy-N-methyl-1,4-dihydrochromeno[4,3-c]pyrazole-3-carboxamide] are less than 10 nM and 101 to 500 nM.
As to `COc1cc(OC)cc(-n2nc(C(=O)N(C)C(C)(C)C)c3c2-c2cc(-c4cc[nH]c4)c(OC)cc2OC3)c1` [Compound 38], the figures for the EC50 (at FSHR; in experiment [1]) were 10 to 100 nM and 101 to 500 nM, respectively.
The corresponding values for `CCOC(=O)C1CC1c1cc2c(cc1OC)OCc1c(C(=O)N(C)C(C)(C)C)nn(-c3cc(Cl)cc(Cl)c3)c1-2` (centres unmarked) [Compound 196] are less than 10 nM and 101 to 500 nM.
In the case of `COc1cc2c(cc1-c1cncc(C#N)c1)-c1c(c(C(=O)N3CCOCC3(C)C)nn1-c1cc(F)cc(Cl)c1)CO2` [Compound 28, 5-(1-(3-chloro-5-fluorophenyl)-3-(3,3-dimethylmorpholine-4-carbonyl)-7-methoxy-1,4-dihydrochromeno[4,3-c]pyrazol-8-yl)nicotinonitrile], the concentration giving a half-maximal response (EC50) on FSHR is less than 10 nM; in experiment [1] it was 101 to 500 nM.
The corresponding values for `CCN(C(=O)c1nn(-c2cc(Cl)cc(Cl)c2)c2c1COc1cc(OC)c(-c3ccn(C)n3)cc1-2)S(=O)(=O)CC` [Compound 188, 1-(3,5-dichlorophenyl)-N-ethyl-N-(ethylsulfonyl)-7-methoxy-8-(1-methyl-1H-pyrazol-3-yl)-1,4-dihydrochromeno[4,3-c]pyrazole-3-carboxamide] are less than 10 nM and 101 to 500 nM.
In the same order, the values of `COc1cc2c(cc1-c1ccn(C)n1)-c1c(c(C(=O)N3CCOCC3(C)C)nn1-c1cc(F)cc(F)c1)CO2` [Compound 51, (1-(3,5-difluorophenyl)-7-methoxy-8-(1-methyl-1H-pyrazol-3-yl)-1,4-dihydrochromeno[4,3-c]pyrazol-3-yl)(3,3-dimethylmorpholino)methanone] are 10 to 100 nM and 101 to 500 nM.
The corresponding values for `COc1cc2c(cc1-c1ccn(C)n1)-c1c(c(C(=O)N(C)C(C)(C)C)nn1-c1cc(F)cc(Cl)c1)CO2` [Compound 27, N-tert-butyl-1-(3-chloro-5-fluorophenyl)-7-methoxy-N-methyl-8-(1-methyl-1H-pyrazol-3-yl)-1,4-dihydrochromeno[4,3-c]pyrazole-3-carboxamide] are 10 to 100 nM and more than 500 nM.
As for `COc1cc2c(cc1-c1c(C)nn(CC(=O)N(C)C)c1C)-c1c(c(C(=O)N(C)C(C)(C)C)nn1-c1cc(Cl)cc(Cl)c1)CO2` [Compound 136, N-tert-butyl-1-(3,5-dichlorophenyl)-8-(1-(2-(dimethylamino)-2-oxoethyl)-3,5-dimethyl-1H-pyrazol-4-yl)-7-methoxy-N-methyl-1,4-dihydrochromeno[4,3-c]pyrazole-3-carboxamide], the concentration giving a half-maximal response (EC50) on FSHR was less than 10 nM; in experiment [1], 10 to 100 nM.
In the case of `COc1cc(F)cc(-n2nc(C(=O)N3CCOCC3(C)C)c3c2-c2cc(-c4cnn(CC(=O)O)c4)c(OC)cc2OC3)c1` [Compound 89, 2-(4-(3-(3,3-dimethylmorpholine-4-carbonyl)-1-(3-fluoro-5-methoxyphenyl)-7-methoxy-1,4-dihydrochromeno[4,3-c]pyrazol-8-yl)-1H-pyrazol-1-yl)acetic acid], the half-maximal effective concentration (EC50) at FSHR was less than 10 nM; in experiment [1], 101 to 500 nM.
As to `COc1cc(OC)cc(-n2nc(C(=O)N(C)C(C)(C)CCO)c3c2-c2cc(-c4ccn(C)n4)c(OC)cc2OC3)c1` [Compound 134, 1-(3,5-dimethoxyphenyl)-N-(4-hydroxy-2-methylbutan-2-yl)-7-methoxy-N-methyl-8-(1-methyl-1H-pyrazol-3-yl)-1,4-dihydrochromeno[4,3-c]pyrazole-3-carboxamide], the EC50 on FSHR is 10 to 100 nM; in experiment [1], more than 500 nM.
The corresponding values for `COc1cc2c(cc1-c1cnn(C(N)=O)c1)-c1c(c(C(=O)N(C)C(C)(C)C)nn1-c1cc(Cl)cc(Cl)c1)CO2` [Compound 181, N-tert-butyl-8-(1-carbamoyl-1H-pyrazol-4-yl)-1-(3,5-dichlorophenyl)-7-methoxy-N-methyl-1,4-dihydrochromeno[4,3-c]pyrazole-3-carboxamide] are less than 10 nM and 10 to 100 nM.
Consider `COc1cc2c(cc1-c1cnn(CC(N)=O)c1)-c1c(c(C(=O)N3CCOCC3(C)C)nn1-c1cc(F)cc(F)c1)CO2` [Compound 99, 2-(4-(1-(3,5-difluorophenyl)-3-(3,3-dimethylmorpholine-4-carbonyl)-7-methoxy-1,4-dihydrochromeno[4,3-c]pyrazol-8-yl)-1H-pyrazol-1-yl)acetamide], for which the concentration giving a half-maximal response (EC50) on FSHR was less than 10 nM; in experiment [1], 10 to 100 nM.
In the same order, the values of `COc1cc2c(cc1-c1cncc(C(N)=O)c1C)-c1c(c(C(=O)N(C)C(C)(C)C#N)nn1-c1cc(Cl)cc(Cl)c1)CO2` [Compound 118, 8-(5-carbamoyl-4-methylpyridin-3-yl)-N-(2-cyanopropan-2-yl)-1-(3,5-dichlorophenyl)-7-methoxy-N-methyl-1,4-dihydrochromeno[4,3-c]pyrazole-3-carboxamide] are less than 10 nM and 10 to 100 nM.
The corresponding values for `COc1cc2c(cc1-c1cc(=O)[nH][nH]1)-c1c(c(C(=O)N(C)C(C)(C)C)nn1-c1ccsc1)CO2` [Compound 185, N-tert-butyl-7-methoxy-N-methyl-8-(5-oxo-2,5-dihydro-1H-pyrazol-3-yl)-1-(thiophen-3-yl)-1,4-dihydrochromeno[4,3-c]pyrazole-3-carboxamide] are 10 to 100 nM and 101 to 500 nM.
In the case of `COc1cc2c(cc1-c1cncc(CO)c1)-c1c(c(C(=O)N3CCOCC3(C)C)nn1-c1cc(Cl)cc(Cl)c1)CO2` [Compound 24, (1-(3,5-dichlorophenyl)-8-(5-(hydroxymethyl)pyridin-3-yl)-7-methoxy-1,4-dihydrochromeno[4,3-c]pyrazol-3-yl)(3,3-dimethylmorpholino)methanone], the EC50 at FSHR was less than 10 nM; in experiment [1], 10 to 100 nM.
